Data on one compound can be found in US20160030391A1, “METHODS AND COMPOSITIONS FOR IMPROVING COGNITIVE FUNCTION” (THE JOHNS HOPKINS UNIVERSITY, priority 2013, published 2016).

The conditions of series [1]: cited from earlier work.
The test system of series [2] is entorhinal cortex of aMCI subjects. As to the kind of experiment: fMRI activity in entorhinal cortex during lure stimuli correctly identified as similar. To be noted: levetiracetam 125 mg twice a day for two weeks vs placebo. The series is classed as in vivo, human. From the text:
As described above, the drug treatment period is the two weeks preceding Visit 1 or 2 (with the two week period preceding the other Visit being the placebo phase). […] Imaging data are obtained through high-resolution methods developed in the Stark laboratory. Data are collected on a Phillips 3 Tesla scanner (Eindhoven, The Netherlands) equipped with an 8-channel SENSE (Sensitivity Encoding) head coil, located at the F.M. Kirby Research Center for Functional Brain Imaging at the Kennedy Krieger Institute (Baltimore, Md.). High-resolution echo-planar images are collected using an acquisition matrix of 64×64, a repetition time of 1500 milliseconds, an echo time of 30 milliseconds, a […] of 70 degrees, a SENSE factor of 2, and an isotropic resolution of 1.5 mm×1.5 mm x 1.5 mm with no gap. Nineteen oblique slices are acquired parallel to the principal longitudinal axis of the hippocampus and covered the entire medial temporal lobe region bilaterally. […] Group data are analyzed using a two-way Analysis of Variance (ANOVA) with trial types and group as fixed factors, and subject as a random factor nested within group. […] The activity of the subject's medial temporal lobe is measured by functional MRI during the subject's participation in an explicit 3-alternative forced choice task, where participants view novel, repeated and similar (“lure”) stimuli. […]

Series [3] deals with aMCI subjects. Nature of the series: Verbal Paired Associates Test - Recognition. The note with it: levetiracetam 125 mg twice a day for two weeks. The series is classed as in vivo, human. From the text: Breaks are provided to the subject as needed.
The nature of series [4]: levetiracetam blood plasma levels in aged-impaired rats. The series is classed as in vivo. The note with it: rat, 60 mg/kg/day, 28-day treatment, read-out: mean levetiracetam blood plasma level. The text has this: Rats: Blood was drawn from aged-impaired rats by cardiac puncture during perfusion after a 28-day levetiracetam treatment period and sent for analysis of levetiracetam plasma levels by MedTox Laboratories in St. Paul, Minn.

The subject of series [5] is aMCI subjects. As to the kind of experiment: explicit 3-alternative forced choice task. The series is classed as in vivo, human. The text has this:
See Folstein et al., J Psychiatric Res 12: 189-98, (1975); Robbins et al., Dementia 5: 266-81, (1994); Rey, L′examen clinique en psychologie, (1964); Kluger et al., J Geriatr Psychiatry Neurol 12:168-79, (1999); Marquis et al., 2002 and Masur et al., 1994. Also see Buchanan, R. W., Keefe, R. S. E., Umbricht, D., Green, M. F., Laughren, T., and Marder, S. R. (2011) The FDA-NIMH-MATRICS guidelines for clinical trial design of cognitive-enhancing drugs: what do we know 5 years later? Schizophr. Bull. 37, 1209-1217. Another example of a cognitive test in humans is the explicit 3-alternative forced choice task. In this test, subjects are presented with color photographs of common objects consisting of a mix of three types of image pairs: similar pairs, identical pairs and unrelated foils. The second of the pair of similar objects is referred to as the “lure”. These image pairs are fully randomized and presented individually as a series of images. Subjects are instructed to make a judgment as to whether the objects seen are new, old or similar. A “similar” response to the presentation of a lure stimulus indicates successful memory retrieval by the subject.
The activity of the subject's medial temporal lobe is measured by functional MRI during the subject's participation in an explicit 3-alternative forced choice task, where participants view novel, repeated and similar (“lure”) stimuli. The Psychophysics Toolbox extensions in Matlab 7.0 (The MathWorks, Natick, Mass.) is used for stimulus presentation and behavioral data collection. Stimuli are color photographs of common objects. Each participant undergoes a series of testing runs during the functional imaging sessions, each run consisting of a mix of three types of image pairs: similar pairs, identical pairs and unrelated foils. These image pairs are fully randomized throughout the run and presented individually as a series of images (see FIG. 10A). Participants are instructed to make a judgment as to whether each object seen is new, old or similar. […]

Where two headings read alike, the source gives them in different places.

Turning to `CC[C@@H](C(N)=O)N1CCCC1=O` [levetiracetam, (2S)-2-(2-oxopyrrolidin-1-yl)butanamide], the Plasma half-life in series [1] (expected in elderly due to decreased renal function) was 9 to 10 h; in series [1] (oral administration), “approximately 7±1 hour”. Further, the “time of peak plasma concentrations” value in series [1] (following oral administration) is “about 1 hour”. In addition, the “time to steady state” value in series [1] (multiple twice-daily dosing) is reported as 2 days. Moreover, the “absorption after oral administration” value in series [1] (oral administration) was “rapidly and almost completely absorbed”. The “effect of food on bioavailability” value in series [1] (oral administration) is on record as “not affected by food”. Also, the “EC activity during memory judgments (fMRI)” value in series [2] was “increases EC activity”. Further, the “performance in Verbal Paired Associates Test—Recognition” value in the series with aMCI subjects [3] was “fail to rescue performance”. The concentration at 28 days in series [4] came to 22400 ng/mL. Besides, the results for the “performance in the explicit 3-alternative forced choice task” value in the series with aMCI subjects [5] (levetiracetam 62.5 mg BID for two weeks), with aMCI subjects [5] (levetiracetam 125 mg twice a day for two weeks vs placebo) and with aMCI subjects [5] (levetiracetam 250 mg BID for two weeks) were “improves significantly”, “improves significantly” and “does not significantly improve”, respectively.
